Results published in patent US20240002424A1, “HEXOSAMINE COMPOUNDS AND METHODS THEREOF” (National Institute of Immunology, priority 2021, published 2024).

Legend:
Format in all cases: cell-based, human
HL-60 cells [1] = experiment: Cell surface sialyl-Lewis-X (CD15s) by anti-CD15s (CSLEX1) flow cytometry
HL-60 cells [2] = experiment: Total and glycoside bound sialic acids by periodate-resorcinol assay; conditions: 100 μM, 48 h
Description: Total sialic acids were measured following reported procedures. HL-60 cells (3.0×10^5 cells/mL in 10 mL complete medium in 10 cm diameter Petri dishes) were incubated with D, 1a, 1b, 1c, 1d, 1e, 1f, 1g, 2a, or 2b (100 mM each), along with untreated (U) controls. After 48 h, cells were harvested, washed with PBS (3×5.0 mL; 3000×g, for 2.0 min), aliquoted to 2×10^6 cells per sample and resuspended in PBS (150 mL) in 1.5 mL microcentrifuge tubes. Cells were lyzed by three freeze-thaw cycles and the total lysates were subjected to periodate-resorcinol assay. Briefly, lysates (150 mL) were treated with 0.4 M aqueous periodic acid (6.67 mM) or (2.5 mL) and incubated either on ice for 15 min (for measurement of total sialic acids) or at 37° C. for 1.0 h (for measurement of glycoconjugate bound sialic acids). About 10 mL of reagent cocktail was prepared using 6% w/v of aqueous resorcinol (1.0 mL), 2.5 mM copper (II) sulfate (1.0 mL), 44% of concentrated hydrochloric acid (4.4 mL), and water (3.6 mL). The mixture was then treated with the reagent cocktail (250 mL per sample), boiled at 100° C. for 10 min, rapidly quenched in an ice-bath and treated with tert-butanol (250 mL). The contents were centrifuged and the supernatants were aliquoted (200 mL) into 96-well plates and the absorbance at 630 nm was measured. At least three replicates were prepared for each condition.

Jurkat cells [3] = experiment: GalNAz expression on the cell surface, co-incubation with Ac4GalNAz (3), DBCO-Cy5 flow cytometry; conditions: 50 μM co-incubated with 3 (50 μM)
Description: Effect of ManNAc analogues on NeuAz and GalNAz expression: Jurkat cells were incubated under various conditions, namely, (i) D, 1c, 3, 1a, or 1b alone, (ii) 1a or 1b in combination with 1c, (iii) 1a or 1b in combination with 3. After 24 h, cells were harvested, washed, labelled using DBCO-Cy5 ([…]), processed, and analysed by flow cytometry as mentioned above
The high degree of selectivity of ManNAc analogues for processing by the sialic acid biosynthetic pathway was further confirmed by competitive studies using Ac4GalNAz (3) which is known to be processed through both the mucin-type O-glycosylation (MTOG) and β-O-GlcNAc-ylation pathways. The expression of NeuAz by 1c was suppressed by 1a or 1b (50 μM) to an extent of 50% upon co-incubation. By contrast, no reduction in the expression of N-azidoacetyl-D-galactosamine (GalNAz) on the cell surface was noticed upon co-incubation of 3 (50 μM) with 1a or 1b (50 μM) (FIG. 6E and FIG. 7C).

HL-60 cells [4] = experiment: Cell surface sialyl-Lewis-X (CD15s) by anti-CD15s (CSLEX1) flow cytometry; conditions: 50 μM, 24 h
Description: Effect of ManNAc analogues on the expression of sialyl-Lewis-X and Lewis-X: HL-60 cells (3.0×10^5 cells/mL in 2.0 mL complete medium in 6 well plate) were treated with D (vehicle), 1a, 1b, 1c, 1d, 1e, 1f, or 1g (50 PM), along with untreated (U) control. After 24 h, cells were harvested and washed with PBS (3×0.5 mL, 3000×g, 3.0 min at room temperature). Prior to last wash, cells were counted using Z2 coulter counter and aliquoted at 2.5×10^5 cells per sample and stained with either mouse anti-human CD15s (CSLEX1) (1.25 μg/mL) or mouse anti-human CD15 (HI98) (2.5 μg/mL) in HEPES/CaCl2) buffer (30 mM HEPES, 110 mM NaCl, 10 mM KCl, 2 mM MgCl2, 10 mM glucose, 1.5 mM CaCl2) containing 0.1% bovine serum albumin, pH 7.3) (total volume of 100 μL) for 30 min at 4° C. Cells were washed with HEPES/CaCl2 buffer (2×0.5 mL) and stained with AlexaFluor488-conjugated anti-mouse IgM (2.5 μg/mL) (for both CD15s and CD15) in 100 μL HEPES/CaCl2 for 30 min at 4° C. Cells were washed with HEPES/CaCl2 buffer (2×0.5 mL), resuspended in PBS (0.2 mL), treated with PI (2.5 μg/ml) and analysed by BD FACSVerse. Samples treated with (i) isotype antibodies followed by secondary antibody and (ii) secondary antibody alone were prepared as controls. Single Cells were gated for PI-negative population for 10,000 events and analysed by flow cytometry. Two replicate samples were prepared for each condition and each sample was counted twice. Three independent experiments were performed. Data was analysed using FlowJo V10. For plotting graph and calculation of significant probability ‘p’ values, two-way ANOVA with Dunnett's multiple comparison tests was employed in GraphPad Prism 8.
Time course of CD15s expression: HL-60 cells (3.0×10^5 cells/mL in 2.5 mL complete medium in 6-well plates) were incubated with D, 1a, 1b, or 1d (50 mM). At each time point, from day 1 to day 6, the cells were harvested from the entire contents of the well, washed, and aliquoted to 5.0×10^5 cells per sample, and immuno-stained using anti-CD15s (CSLEX1) antibody as mentioned above. On day 3, 4, and 5 complete media (1.0 mL) was added to each remaining well in order to compensate for media exhaustion. No contents were removed from the well during the period.

Jurkat cells [5] = experiment: NeuAz expression on the cell surface by SPAAC with DBCO-Cy5 and flow cytometry, competition with Ac4ManNAz (1c); conditions: analogue 10 μM first, 1c 50 μM added at 12 h, estimation at 48 h
HL-60 cells [6] = experiment: Far-western blot of total lysates with biotinylated SNA; conditions: HL-60 lysates; 50 μM, 72 h
Description: After 72 h, cells were harvested and lyzed in RIPA buffer containing PIC. Protein concentration in the soluble fraction was estimated using Bradford assay, subjected to 10% SDS-PAGE, blotted onto nitrocellulose membranes (constant current 250 mA, 3 h, 4° C.). Membranes were blocked using 2% w/v gelatin (5.0 mL) in 0.1% PBS-T at room temperature. After 1h, membranes were incubated with either bMAL-II (1:2000, stock conc. 1.0 mg/mL) or bSNA (1:5000, stock conc. 2.0 mg/mL) in 0.1% PBS-T (5.0 mL) at room temperature. After 1 h, membranes were washed using 0.1% PBS-T (6×5.0 mL, 5.0 min), followed by incubation with HRPconjugated avidin (1:50000, stock conc. 2.0 mg/mL) in 0.1% PBS-T (5.0 mL). After 30 min, membranes were washed using 0.1% PBS-T (6×5.0 mL, 5.0 min). Blots were developed using enhanced chemiluminescence substrate and photographic films. Blots using anti-β-actin (as mentioned above) were performed in parallel as loading controls. At least two independent replicate experiments were performed.

Row | Compound | change in sLeX levels in time course (in words) (HL-60 cells [1]; 50 μM, time course) | increase in glycoside bound sialic acid levels (HL-60 cells [2]) [%] | increase in total sialic acid levels vs untreated cells (HL-60 cells [2]) [fold] | ratio of total sialic acids to glycoside bound sialic acids vs untreated cells (HL-60 cells [2]) | reduction in expression of GalNAz on the cell surface (Jurkat cells [3]) | increase in binding of CSLEX1 antibody (sLeX) compared to controls (HL-60 cells [4]) [fold] | suppression of NeuAz expression, delayed addition of 1c (Jurkat cells [5]) [%] | SNA epitopes in lectin blot compared to controls (HL-60 cells [6]) | decrease in glycoside bound sialic acid levels (HL-60 cells [2]) [%] | maximum increase in sLeX levels on day 2 (HL-60 cells [1]; single dosage 50 μM, day 2) [fold] | sLeX levels by day 6 (in words) (HL-60 cells [1]; single dosage 50 μM, day 6) | sLeX levels on day 6, fold higher (HL-60 cells [1]; single dosage 50 μM, day 6) | day of peak sLeX expression (HL-60 cells [1]; single dosage 50 μM, time course day 1 to day 6) [days] | increase in binding of CSLEX1 antibody (sLeX), in words (HL-60 cells [4])
1 | CC(=O)NC1C(OC(C)=O)OC(COC(C)=O)[C@@H](OC(C)=O)[C@@H]1OC(C)=O (stereo partly drawn) [Compound 1d, 1,3,4,6-tetra-O-acetyl-2-acetylamino-2-deoxy-α/β-D-mannopyranose] | no change | ~10 | 2.0 | higher ratios of free sialic acid | – | – | – | – | – | – | – | – | – | –
2 | CC(=O)OC[C@H]1O[C@H](OC(C)=O)[C@@H](NC(=O)C2CC2)[C@@H](OC(C)=O)[C@@H]1OC(C)=O [Compound 1a, 1,3,4,6-tetra-O-acetyl-2-cyclopropanoylamino-2-deoxy-α-D-mannopyranose] | – | – | – | higher ratios of free sialic acid | no reduction | ~2.5 | 30 | significant reduction | ~10 | – | – | – | – | –
3 | CC(=O)OC[C@H]1OC(OC(C)=O)[C@@H](NC(=O)C2CCC2)[C@@H](OC(C)=O)[C@@H]1OC(C)=O (stereo partly drawn) [Compound 1b, (3S,4R,5S,6R)-6-(acetoxymethyl)-3-(cyclobutanecarboxamido)tetrahydro-2H-pyran-2,4,5-triyl triacetate] | – | – | – | higher ratios of free sialic acid | no reduction | – | 50 | significant reduction | ~10 | 3.0 | returned to normal levels | approximately 2.3 fold | 2 | nearly a four-fold increase
